Measurements from PubChem BioAssay AID274 (DTP/NCI, 2004).
Several values for one entry are separate records, joined by “and”; a condition that tells them apart may be missing. Identical values can stand only once. Inconclusive results and toxic doses are left out.

Tested on: BDF1 mice, Lewis lung carcinoma iv, survival T/C
Assay: NCI In Vivo Anticancer Drug Screen. Data for tumor model Lewis Lung Carcinoma (intravenous) in B6D2F1 (BDF1) mice
Conditions: endpoint: median survival time, higher = longer survival
Description: The antitumor activity of compounds was measured in mice bearing transplantable tumors. Survival or tumor size were measured and the results are expressed as the measurement made in the treated group (T) divided by the measurement made in the vehicle treated control group (C). The tumor model used in this assay is Lewis Lung Carcinoma (intravenous) in B6D2F1 (BDF1) mice

[1] = dose: 1.0 mg/kg/injection, schedule: Q01DX009 (ip), vehicle: saline with Tween-80
[2] = dose: 2.0 mg/kg/injection, schedule: Q01DX009 (ip), vehicle: saline with Tween-80
[3] = dose: 4.0 mg/kg/injection, schedule: Q01DX009 (ip), vehicle: saline with Tween-80
[4] = dose: 8.0 mg/kg/injection, schedule: Q01DX009 (ip), vehicle: saline with Tween-80
[5] = dose: 6.25 mg/kg/injection, schedule: Q01DX009 (ip), vehicle: saline
[6] = dose: 12.5 mg/kg/injection, schedule: Q01DX009 (ip), vehicle: saline
[7] = dose: 25.0 mg/kg/injection, schedule: Q01DX009 (ip), vehicle: saline
[8] = dose: 50.0 mg/kg/injection, schedule: Q01DX009 (ip), vehicle: saline
[9] = dose: 100.0 mg/kg/injection, schedule: Q01DX009 (ip), vehicle: saline
[10] = dose: 200.0 mg/kg/injection, schedule: Q01DX009 (ip), vehicle: saline
[11] = dose: 12.5 mg/kg/injection, schedule: Q01DX009 (ip), vehicle: saline with Tween-80
[12] = dose: 25.0 mg/kg/injection, schedule: Q01DX009 (ip), vehicle: saline with Tween-80
[13] = dose: 50.0 mg/kg/injection, schedule: Q01DX009 (ip), vehicle: saline with Tween-80
[14] = dose: 100.0 mg/kg/injection, schedule: Q01DX009 (ip), vehicle: saline with Tween-80

With `O=S(=O)(O)O` the T/C [1] was 91 % of control, the T/C [2] was 86 % of control and the T/C [3] was 86 % of control. For the same compound, the T/C [4] was 97 % of control.

In the case of `O=c1[nH]c(=O)n(C2CC(O)C(CO)O2)cc1F` (stereo unspecified), the T/C (dose: 72.0 mg/kg/injection, schedule: Q04DX003 (ip), vehicle: saline) is reported as 108 % of control and 113 % of control, the T/C (dose: 72.0 mg/kg/injection, schedule: Q04DX006 (ip), vehicle: saline) is reported as 123 % of control and the T/C (dose: 103.0 mg/kg/injection, schedule: Q04DX006 (ip), vehicle: saline) is reported as 116 % of control. For the same compound, the T/C (dose: 210.0 mg/kg/injection, schedule: Q04DX006 (ip), vehicle: saline) was 155 % of control, the T/C (dose: 300.0 mg/kg/injection, schedule: Q04DX006 (ip), vehicle: saline) was 96 % of control and the T/C (dose: 429.0 mg/kg/injection, schedule: Q04DX003 (ip), vehicle: saline) was 174 % of control.

With `OCCOCCN1CCN(CCCN2c3ccccc3Sc3ccc(C(F)(F)F)cc32)CC1` the T/C (dose: 1.56 mg/kg/injection, schedule: Q01DX009 (ip), vehicle: saline) was 110 % of control, the T/C (dose: 3.12 mg/kg/injection, schedule: Q01DX009 (ip), vehicle: saline) was 105 % of control and the T/C [5] was 102 % of control. The T/C [6] was 123 % of control.

In the case of `O=C1C=CC(n2cc(F)c(=O)[nH]c2=O)O1` (stereo unspecified), the T/C [5] is reported as 106 % of control, the T/C [6] is reported as 96 % of control and the T/C [7] is reported as 103 % of control. For the same compound, the T/C [8] was 119 % of control.

In the case of `C1CCC2OCCOCCOC3CCCCC3OCCOCCOC2C1` (stereo unspecified), the T/C (dose: 3.12 mg/kg/injection, schedule: Q01DX009 (ip), vehicle: Klucel (hydroxypropylcellulose) (HPC)) is reported as 92 % of control, the T/C (dose: 6.25 mg/kg/injection, schedule: Q01DX009 (ip), vehicle: Klucel (hydroxypropylcellulose) (HPC)) is reported as 87 % of control and the T/C (dose: 12.5 mg/kg/injection, schedule: Q01DX009 (ip), vehicle: Klucel (hydroxypropylcellulose) (HPC)) is reported as 101 % of control. The T/C (dose: 25.0 mg/kg/injection, schedule: Q01DX009 (ip), vehicle: Klucel (hydroxypropylcellulose) (HPC)) was 93 % of control and the T/C (dose: 50.0 mg/kg/injection, schedule: Q01DX009 (ip), vehicle: Klucel (hydroxypropylcellulose) (HPC)) was 91 % of control.

For `CN(C)CC(=O)c1ccc(O)c(O)c1`, the T/C [9] was 99 % of control, the T/C [10] was 91 % of control and the T/C (dose: 400.0 mg/kg/injection, schedule: Q01DX009 (ip), vehicle: saline) was 90 % of control.

`N=c1ccn2c(n1)OC1C(O)C(CO)OC12` (stereo unspecified) was tested, and the T/C [7] was 104 % of control, the T/C (dose: 37.5 mg/kg/injection, schedule: Q01DX009 (ip), vehicle: saline) was 108 % of control and the T/C (dose: 75.0 mg/kg/injection, schedule: Q01DX009 (ip), vehicle: saline) was 106 % of control. The T/C [9] was 112 % of control, the T/C (dose: 150.0 mg/kg/injection, schedule: Q01DX009 (ip), vehicle: saline) was 119 % of control and the T/C (dose: 300.0 mg/kg/injection, schedule: Q01DX009 (ip), vehicle: saline) was 104 % of control. The T/C (dose: 600.0 mg/kg/injection, schedule: Q01DX009 (ip), vehicle: saline) was 92 % of control.

With `O=[N+]([O-])c1ccc(Sc2ccncn2)c([N+](=O)[O-])c1` the T/C [11] was 91 % of control, the T/C [12] was 112 % of control and the T/C [13] was 95 % of control. The T/C [14] was 107 % of control.

In the case of `CC[C@H]1CN2CCc3cc(OC)c(OC)cc3[C@@H]2C[C@@H]1C[C@H]1NCCc2cc(O)c(OC)cc21`, the T/C (dose: 2.0 mg/kg/injection, schedule: Q01DX009 (ip), vehicle: saline) is reported as 109 % of control, the T/C (dose: 4.0 mg/kg/injection, schedule: Q01DX009 (ip), vehicle: saline) is reported as 100 % of control and the T/C (dose: 8.0 mg/kg/injection, schedule: Q01DX009 (ip), vehicle: saline) is reported as 116 % of control. For the same compound, the T/C (dose: 16.0 mg/kg/injection, schedule: Q01DX009 (ip), vehicle: saline) was 116 % of control.

For `Nc1ncnc2c1cnn2Cc1ccc(Cl)cc1`, the T/C [7] was 112 % of control, the T/C [8] was 98 % of control and the T/C [14] was 158 % of control. The T/C [9] was 98 % of control and the T/C (dose: 200.0 mg/kg/injection, schedule: Q01DX009 (ip), vehicle: saline with Tween-80) was 109 % of control.

In the case of `CN(C)CCN1C(=O)c2cccc3cc(N)cc(c23)C1=O`, the T/C [1] is reported as 100 % of control, the T/C [2] is reported as 100 % of control and the T/C [3] is reported as 97 % of control. For the same compound, the T/C [4] was 98 % of control and the T/C (dose: 16.0 mg/kg/injection, schedule: Q01DX009 (ip), vehicle: saline with Tween-80) was 116 % of control.

With `COc1cccc2c1C(=O)c1c(O)c3c(c(O)c1C2=O)C[C@@](O)(/C(C)=N\O)C[C@@H]3OC1CC(N)C(O)C(C)O1` (stereo partly specified) the T/C (dose: 3.13 mg/kg/injection, schedule: Q01DX009 (ip), vehicle: water) was 108 % of control, the T/C (dose: 6.25 mg/kg/injection, schedule: Q01DX009 (ip), vehicle: water) was 99 % of control and the T/C (dose: 12.5 mg/kg/injection, schedule: Q01DX009 (ip), vehicle: water) was 114 % of control.

In the case of `CC(=O)Nc1ccc(Nc2ccc(C(=C3C=CC(=[N+](C)CCC#N)C=C3)c3ccc(N(C)CCC#N)cc3)cc2)cc1`, the T/C [11] is reported as 101 % of control and the T/C [12] is reported as 110 % of control.

`CC[N](CC)[Ge]([CH2]C)[CH2]C.CC[N](CC)[Ge]([CH2]C)[CH2]C` was tested, and the T/C (dose: 3.12 mg/kg/injection, schedule: Q01DX009 (ip), vehicle: suspension in saline) was 113 % of control, the T/C (dose: 6.25 mg/kg/injection, schedule: Q01DX009 (ip), vehicle: suspension in saline) was 95 % of control and the T/C (dose: 12.5 mg/kg/injection, schedule: Q01DX009 (ip), vehicle: suspension in saline) was 96 % of control. For the same compound, the T/C (dose: 25.0 mg/kg/injection, schedule: Q01DX009 (ip), vehicle: suspension in saline) was 106 % of control and the T/C (dose: 50.0 mg/kg/injection, schedule: Q01DX009 (ip), vehicle: suspension in saline) was 100 % of control.

For `CC[PH+](CC)CC[S-].CC[PH+](CC)CC[S-].[Au+].[Au+]`, the T/C (dose: 2.5 mg/kg/injection, schedule: Q01DX009 (ip), vehicle: Klucel (hydroxypropylcellulose) (HPC)) was 115 % of control, the T/C (dose: 5.0 mg/kg/injection, schedule: Q01DX009 (ip), vehicle: Klucel (hydroxypropylcellulose) (HPC)) was 102 % of control and the T/C (dose: 10.0 mg/kg/injection, schedule: Q01DX009 (ip), vehicle: Klucel (hydroxypropylcellulose) (HPC)) was 109 % of control. For the same compound, the T/C (dose: 20.0 mg/kg/injection, schedule: Q01DX009 (ip), vehicle: Klucel (hydroxypropylcellulose) (HPC)) was 114 % of control, the T/C (dose: 40.0 mg/kg/injection, schedule: Q01DX009 (ip), vehicle: Klucel (hydroxypropylcellulose) (HPC)) was 102 % of control and the T/C (dose: 80.0 mg/kg/injection, schedule: Q01DX009 (ip), vehicle: Klucel (hydroxypropylcellulose) (HPC)) was 109 % of control.

In the case of `CCCCCCCCCCCCCCCC[N+]1(C)CCN(SN2CC[N+](C)(CCCCCCCCCCCCCCCC)CC2)CC1`, the T/C [12] is reported as 109 % of control, the T/C [13] is reported as 100 % of control and the T/C [14] is reported as 104 % of control.

In the case of `Nc1ccn(C2OC(COC(=O)C34CC5CC(CC(C5)C3)C4)C(O)C2O)c(=O)n1` (stereo unspecified), the T/C [11] is reported as 116 % of control.

In the case of `COC1OC(CO)C(O)C(NC(=O)N(C)N=O)C1O` (stereo unspecified), the T/C [6] is reported as 109 % of control, the T/C [7] is reported as 108 % of control and 115 % of control and the T/C [9] is reported as 123 % of control. For the same compound, the T/C [10] was 152 % of control.

In the case of `CN(C)[C@@H]1C(=O)C(C(N)=O)=C(O)[C@@]2(O)C(=O)C3=C(O)c4c(O)ccc(Cl)c4[C@@](C)(O)[C@H]3C[C@@H]12`, the T/C [6] is reported as 111 % of control, the T/C [7] is reported as 101 % of control and the T/C [8] is reported as 99 % of control. The T/C [9] was 103 % of control and the T/C [10] was 107 % of control.

In the case of `C1CN1c1nc(N2CC2)nc(N2CC2)n1`, the T/C (dose: 0.06 mg/kg/injection, schedule: Q01DX009 (ip), vehicle: suspension in saline) is reported as 105 % of control, the T/C (dose: 0.12 mg/kg/injection, schedule: Q01DX009 (ip), vehicle: suspension in saline) is reported as 101 % of control and the T/C (dose: 0.25 mg/kg/injection, schedule: Q01DX009 (ip), vehicle: suspension in saline) is reported as 112 % of control.

`CNC=O` was tested, and the T/C (dose: 100.0 mg/kg/injection, schedule: Q01DX009 (ip), vehicle: saline sonified) was 106 % of control, the T/C (dose: 200.0 mg/kg/injection, schedule: Q01DX009 (ip), vehicle: saline sonified) was 114 % of control and the T/C (dose: 400.0 mg/kg/injection, schedule: Q01DX009 (ip), vehicle: saline sonified) was 115 % of control.
